Results on 13 molecules are retold here after PubChem BioAssay AID220 (DTP/NCI, 2004).

The test system of the assay is CD8F1 mice, subcutaneous mammary adenocarcinoma, T/C%. Put plainly: NCI In Vivo Anticancer Drug Screen. Data for tumor model Mammary Adenocarcinoma CD8F1 (subcutaneous) in CD8F1. The settings on record: higher = larger tumour. The method, boiled down: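 Mice carrying transplanted tumors received test compound, and survival or tumor size was recorded. Each value is the treated-group measurement divided by the corresponding measurement in vehicle-dosed controls.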

[1] abbreviates: endpoint: median tumor weight (est.), dose: 12.5 mg/kg/injection, schedule: Q07DX005 (ip), vehicle: Klucel (hydroxypropylcellulose) (HPC).
Where [2] appears, read: endpoint: median tumor weight (est.), dose: 25.0 mg/kg/injection, schedule: Q07DX005 (ip), vehicle: Klucel (hydroxypropylcellulose) (HPC).
The mark [3] stands for this setting: endpoint: median tumor weight (est.), dose: 100.0 mg/kg/injection, schedule: Q07DX005 (ip), vehicle: Klucel (hydroxypropylcellulose) (HPC).
[4] abbreviates: endpoint: median tumor weight (est.), dose: 200.0 mg/kg/injection, schedule: Q07DX005 (ip), vehicle: Klucel (hydroxypropylcellulose) (HPC).
Setting [5] is: endpoint: median tumor weight change, dose: 125.0 mg/kg/injection, schedule: Q01DX001 (ip), vehicle: saline with Tween-80.
The mark [6] stands for this setting: endpoint: median tumor weight (est.), dose: 50.0 mg/kg/injection, schedule: Q07DX005 (ip), vehicle: Klucel (hydroxypropylcellulose) (HPC).
The mark [7] stands for this setting: endpoint: median tumor weight change, dose: 125.0 mg/kg/injection, schedule: Q01DX001 (ip), vehicle: Klucel (hydroxypropylcellulose) (HPC).
Setting [8] is: endpoint: median tumor weight change, dose: 250.0 mg/kg/injection, schedule: Q01DX001 (ip), vehicle: Klucel (hydroxypropylcellulose) (HPC).
Setting [9] is: endpoint: median tumor weight change, dose: 62.5 mg/kg/injection, schedule: Q01DX001 (ip), vehicle: Klucel (hydroxypropylcellulose) (HPC).

“And” between values parts separate entries of the source, which are not always exact repeats. Equal values may be shown once. Results filed as inconclusive are left out.

With `CC(=O)OCC1OC(OC2=C(CC=C(C)C)C(=O)c3ccccc3C2=O)C(OC(C)=O)C(OC(C)=O)C1OC(C)=O` (stereo not drawn), the T/C is 75 % of control and 98 % of control under setting [1]; 69 % of control under setting [2]; 113 % of control under setting [3]; 107 % of control under setting [4]; 79 % of control (endpoint: median tumor weight (est.), dose: 400.0 mg/kg/injection, schedule: Q07DX005 (ip), vehicle: Klucel (hydroxypropylcellulose) (HPC)).

Consider `Nc1nc(-c2ccccc2)c(Br)c(=O)[nH]1`, for which the T/C was 115 % of control under setting [5]; 96 % of control (endpoint: median tumor weight change, dose: 250.0 mg/kg/injection, schedule: Q01DX001 (ip), vehicle: saline with Tween-80); 93 % of control (endpoint: median tumor weight change, dose: 500.0 mg/kg/injection, schedule: Q01DX001 (ip), vehicle: saline with Tween-80); 98 % of control (endpoint: median tumor weight change, dose: 1000.0 mg/kg/injection, schedule: Q01DX001 (ip), vehicle: saline with Tween-80).

Consider `CC(=O)CC(C)=O.CC(=O)CC(C)=O.O=N[O-].O=N[O-].[Co]`, for which the T/C runs as follows: (endpoint: median tumor weight change, dose: 62.5 mg/kg/injection, schedule: Q01DX001 (ip), vehicle: saline with Tween-80) 96 % of control; under setting [5], 38 % of control.

Consider `COC(=O)[C@@]12OC[C@]34[C@H]([C@@H](O)[C@@H]1O)[C@@]1(C)CC(=O)C(O)=C(C)[C@@H]1C[C@H]3OC(=O)[C@H](OC(=O)/C=C(/C)C(C)(C)O)[C@@H]24`, for which the T/C runs as follows: (endpoint: median tumor weight (est.), dose: 0.05 mg/kg/injection, schedule: Q07DX005 (ip), vehicle: saline) 92 % of control; (endpoint: median tumor weight (est.), dose: 0.1 mg/kg/injection, schedule: Q07DX005 (ip), vehicle: saline) 88 % of control; (endpoint: median tumor weight (est.), dose: 0.2 mg/kg/injection, schedule: Q07DX005 (ip), vehicle: saline) 67 % of control; (endpoint: median tumor weight (est.), dose: 0.4 mg/kg/injection, schedule: Q07DX005 (ip), vehicle: saline) 100 % of control; (endpoint: median tumor weight (est.), dose: 0.8 mg/kg/injection, schedule: Q07DX005 (ip), vehicle: saline) 90 % of control.

For `O=C(O)c1c2c(nc3ccccc13)Cc1ccccc1-2`, the T/C was 96 % of control under setting [1]; 6 % of control (endpoint: median tumor weight (est.), dose: 12.5 mg/kg/injection, schedule: Q07DX005 (ip), vehicle: water); 119 % of control under setting [2]; 89 % of control (endpoint: median tumor weight (est.), dose: 25.0 mg/kg/injection, schedule: Q07DX005 (ip), vehicle: water); 98 % of control under setting [6]; 59 % of control (endpoint: median tumor weight (est.), dose: 50.0 mg/kg/injection, schedule: Q07DX005 (ip), vehicle: water). The T/C was 97 % of control under setting [3]; 87 % of control (endpoint: median tumor weight (est.), dose: 100.0 mg/kg/injection, schedule: Q07DX005 (ip), vehicle: water); 57 % of control under setting [4]; 60 % of control (endpoint: median tumor weight (est.), dose: 200.0 mg/kg/injection, schedule: Q07DX005 (ip), vehicle: water).

With `NNC(=S)N/N=C/c1ccccn1`, the T/C reads like this: (endpoint: median tumor weight (est.), dose: 6.25 mg/kg/injection, schedule: Q07DX005 (ip), vehicle: saline with Tween-80) 112 % of control; (endpoint: median tumor weight (est.), dose: 12.5 mg/kg/injection, schedule: Q07DX005 (ip), vehicle: saline with Tween-80) 84 % of control; (endpoint: median tumor weight (est.), dose: 25.0 mg/kg/injection, schedule: Q07DX005 (ip), vehicle: saline with Tween-80) 81 % of control; (endpoint: median tumor weight (est.), dose: 50.0 mg/kg/injection, schedule: Q07DX005 (ip), vehicle: saline with Tween-80) 59 % of control.

As for `COC(=O)Nc1nc2ccc(SC)cc2c(=O)[nH]1`, the T/C is 79 % of control under setting [7]; 61 % of control under setting [8]; 57 % of control (endpoint: median tumor weight change, dose: 500.0 mg/kg/injection, schedule: Q01DX001 (ip), vehicle: Klucel (hydroxypropylcellulose) (HPC)).

`O=c1nc(-c2ccco2)sc(=O)[nH]1`: the T/C is, setting by setting: (endpoint: median tumor weight change, dose: 31.25 mg/kg/injection, schedule: Q01DX001 (ip), vehicle: Klucel (hydroxypropylcellulose) (HPC)) 123 % of control; under setting [9], 63 % of control; under setting [7], 120 % of control; under setting [8], 53 % of control.

Regarding `O=c1cnn(C2OC(CO)C(O)C2O)c(=O)[nH]1` (stereo not drawn), the T/C (endpoint: mean tumor weight, dose: 125.0 mg/kg/injection, schedule: Q07DX004 (ip), vehicle: saline) is 67 % of control; the T/C (endpoint: mean tumor weight, dose: 250.0 mg/kg/injection, schedule: Q07DX004 (ip), vehicle: saline) was 49 % of control; the T/C (endpoint: median tumor weight (est.), dose: 100.0 mg/kg/injection, schedule: Q07DX005 (ip), vehicle: saline with Tween-80) is 63 % of control; the T/C (endpoint: median tumor weight (est.), dose: 100.0 mg/kg/injection, schedule: Q07DX005 (ip), vehicle: saline) is 17 % of control; the T/C (endpoint: median tumor weight (est.), dose: 200.0 mg/kg/injection, schedule: Q07DX005 (ip), vehicle: saline with Tween-80) is 95 % of control; the T/C (endpoint: median tumor weight (est.), dose: 200.0 mg/kg/injection, schedule: Q07DX005 (ip), vehicle: saline) was 63 % of control. The T/C is 53 % of control (endpoint: median tumor weight (est.), dose: 400.0 mg/kg/injection, schedule: Q07DX005 (ip), vehicle: saline with Tween-80); 41 % of control (endpoint: median tumor weight (est.), dose: 400.0 mg/kg/injection, schedule: Q07DX005 (ip), vehicle: saline); 66 % of control (endpoint: median tumor weight (est.), dose: 800.0 mg/kg/injection, schedule: Q07DX005 (ip), vehicle: saline with Tween-80); 64 % of control (endpoint: median tumor weight (est.), dose: 800.0 mg/kg/injection, schedule: Q07DX005 (ip), vehicle: saline); 68 % of control (endpoint: median tumor weight (est.), dose: 1600.0 mg/kg/injection, schedule: Q07DX005 (ip), vehicle: saline with Tween-80); 54 % of control (endpoint: median tumor weight (est.), dose: 3200.0 mg/kg/injection, schedule: Q07DX005 (ip), vehicle: saline with Tween-80). Also, the T/C (endpoint: median tumor weight (est.), dose: 3200.0 mg/kg/injection, schedule: Q07DX005 (ip), vehicle: saline) was 76 % of control.

Regarding `CC(C)CC(=O)NC(C(=O)NC(C(=O)NC(CC(C)C)C(O)CC(=O)NC(C)C(=O)NC(CC(C)C)C(O)CC(=O)O)C(C)C)C(C)C` (stereo not drawn), the T/C under setting [9] was 97 % of control.

For `CC[C@]1(O)C[C@H]2CN(CCc3c([nH]c4ccccc34)[C@@](C(=O)OC)(c3cc4c(cc3OC)N(C=O)[C@H]3[C@@](O)(C(=O)OC)[C@H](OC(C)=O)[C@]5(CC)C=CCN6CC[C@]43[C@@H]65)C2)C1`, the T/C by setting is: (endpoint: mean tumor weight, dose: 0.07 mg/kg/injection, schedule: Q01DX009 (ip), vehicle: saline) 180 % of control; (endpoint: mean tumor weight, dose: 0.15 mg/kg/injection, schedule: Q01DX009 (ip), vehicle: saline) 123 % of control; (endpoint: mean tumor weight, dose: 0.3 mg/kg/injection, schedule: Q01DX009 (ip), vehicle: saline) 54 % of control; (endpoint: mean tumor weight, dose: 0.5 mg/kg/injection, schedule: Q07DX006 (ip), vehicle: saline) 49 % of control; (endpoint: mean tumor weight, dose: 1.0 mg/kg/injection, schedule: Q07DX006 (ip), vehicle: saline) 71 % of control; (endpoint: mean tumor weight, dose: 2.0 mg/kg/injection, schedule: Q07DX006 (ip), vehicle: saline) 12 % of control. The T/C is, setting by setting: (endpoint: median tumor weight (est.), dose: 0.13 mg/kg/injection, schedule: Q01DX005 (ip), vehicle: saline) 56 % of control; (endpoint: median tumor weight (est.), dose: 0.19 mg/kg/injection, schedule: Q01DX005 (ip), vehicle: saline) 73 % of control; (endpoint: median tumor weight (est.), dose: 0.25 mg/kg/injection, schedule: Q07DX005 (ip), vehicle: saline) 64 % of control and 73 % of control and 84 % of control; (endpoint: median tumor weight (est.), dose: 0.28 mg/kg/injection, schedule: Q01DX005 (ip), vehicle: saline) 105 % of control; (endpoint: median tumor weight (est.), dose: 0.5 mg/kg/injection, schedule: Q07DX005 (ip), vehicle: saline) 39 % of control and 43 % of control and 45 % of control; (endpoint: median tumor weight (est.), dose: 0.95 mg/kg/injection, schedule: Q07DX005 (ip), vehicle: saline) 29 % of control. In addition, the T/C (endpoint: median tumor weight (est.), dose: 1.0 mg/kg/injection, schedule: Q07DX005 (ip), vehicle: saline) was 6 % of control; the T/C (endpoint: median tumor weight (est.), dose: 1.4 mg/kg/injection, schedule: Q04DX005 (ip), vehicle: saline) is 6 % of control; the T/C (endpoint: median tumor weight (est.), dose: 1.4 mg/kg/injection, schedule: Q07DX005 (ip), vehicle: saline) was 8 % of control; the T/C (endpoint: median tumor weight (est.), dose: 2.0 mg/kg/injection, schedule: Q07DX005 (ip), vehicle: saline) was 1 % of control.

Take `COC1=C(NC(C)=O)C(=O)c2nc(-c3nc(C(=O)O)c(C)c(-c4ccc(OC)c(OC)c4O)c3N)ccc2C1=O`: the T/C (endpoint: median tumor weight change, dose: 12.5 mg/kg/injection, schedule: Q01DX001 (ip), vehicle: Klucel (hydroxypropylcellulose) (HPC)) was 171 % of control.

As for `OC1CCCC2CCC[N-]C12.OC1CCCC2CCC[N-]C12.[Mn+2]` (stereo not drawn), the T/C reads like this: under setting [1], 83 % of control; under setting [2], 94 % of control; under setting [6], 81 % of control; under setting [3], 67 % of control; under setting [4], 43 % of control.
